Results on eleven compounds are retold here after ChEMBL document CHEMBL4270588, “Bioactive heterocycles containing a 3,4,5-trimethoxyphenyl fragment exerting potent antiproliferative activity through microtubule destabilization” (Eur J Med Chem, 2018).

Structures are written as SMILES. Active and inactive are the calls of the source. The calls are words filed in the database; no cut-off is given here.

Test [1] has as its system MGC-803. The experiment in a line: Antiproliferative activity against human MGC803 cells after 48 hrs by MTT assay. Format: functional, cell-based. The settings on record: MGC-803, 48 h.
The test system of test [2] is PC-3. The experiment in a line: Antiproliferative activity against human PC3 cells after 48 hrs by MTT assay. The settings on record: PC-3, 48 h. Format: functional, cell-based.
Test [3] relates to ECa-109 cell line. The experiment in a line: Antiproliferative activity against human EC109 cells after 48 hrs by MTT assay. Format: functional, cell-based. The settings on record: ECa-109, 48 h.
Test [4] deals with Tubulin. The experiment in a line: Inhibition of tubulin polymerization (unknown origin) by turbidimetric method. Format: protein-complex assay, Homo sapiens.
The test system of test [5] is MGC-803. The experiment in a line: Induction of apoptosis in human MGC803 cells assessed as live cells at 200 nM after 48 hrs by Annexin-V-FITC/propidium iodide staining based flow cytometry (reference value: 96.4%). Format: functional.
In test [6] the test system is MGC-803. The experiment in a line: Induction of apoptosis in human MGC803 cells assessed as early apoptotic cells at 200 nM after 48 hrs by Annexin-V-FITC/propidium iodide staining based flow cytometry (reference value: 2.5%). Format: functional.
The subject of test [7] is MGC-803. The experiment in a line: Induction of apoptosis in human MGC803 cells assessed as late apoptotic cells at 200 nM after 48 hrs by Annexin-V-FITC/propidium iodide staining based flow cytometry (reference value: 1%). Format: functional.
Test [8] has as its system MGC-803. The experiment in a line: Induction of apoptosis in human MGC803 cells assessed as necrotic cells at 200 nM after 48 hrs by Annexin-V-FITC/propidium iodide staining based flow cytometry (reference value: 0.1%). Format: functional.
The test system of test [9] is MGC-803. The experiment in a line: Induction of apoptosis in human MGC803 cells assessed as live cells at 400 nM after 48 hrs by Annexin-V-FITC/propidium iodide staining based flow cytometry (reference value: 96.4%). Format: functional.
For test [10], the system named is MGC-803. The experiment in a line: Induction of apoptosis in human MGC803 cells assessed as early apoptotic cells at 400 nM after 48 hrs by Annexin-V-FITC/propidium iodide staining based flow cytometry (reference value: 2.5%). Format: functional.
Test [11] concerns MGC-803. The experiment in a line: Induction of apoptosis in human MGC803 cells assessed as late apoptotic cells at 400 nM after 48 hrs by Annexin-V-FITC/propidium iodide staining based flow cytometry (reference value: 1%). Format: functional.
Test [12] has as its system MGC-803. The experiment in a line: Induction of apoptosis in human MGC803 cells assessed as necrotic cells at 400 nM after 48 hrs by Annexin-V-FITC/propidium iodide staining based flow cytometry (reference value: 0.1%). Format: functional.
In test [13] the test system is MGC-803. The experiment in a line: Induction of apoptosis in human MGC803 cells assessed as live cells at 600 nM after 48 hrs by Annexin-V-FITC/propidium iodide staining based flow cytometry (reference value: 96.4%). Format: functional.
Test [14] concerns MGC-803. The experiment in a line: Induction of apoptosis in human MGC803 cells assessed as early apoptotic cells at 600 nM after 48 hrs by Annexin-V-FITC/propidium iodide staining based flow cytometry (reference value: 2.5%). Format: functional.
Test [15] relates to MGC-803. The experiment in a line: Induction of apoptosis in human MGC803 cells assessed as late apoptotic cells at 600 nM after 48 hrs by Annexin-V-FITC/propidium iodide staining based flow cytometry (reference value: 1%). Format: functional.
Test [16] deals with MGC-803. The experiment in a line: Induction of apoptosis in human MGC803 cells assessed as necrotic cells at 600 nM after 48 hrs by Annexin-V-FITC/propidium iodide staining based flow cytometry (reference value: 0.1%). Format: functional.
The test system of test [17] is MGC-803. The experiment in a line: Induction of apoptosis in human MGC803 cells assessed as decrease in PARP level after 48 hrs by Western blot analysis. Format: functional, cell-based.
Test [18] deals with MGC-803. The experiment in a line: Induction of apoptosis in human MGC803 cells assessed as decrease in Bcl2 level after 48 hrs by Western blot analysis. Format: functional, cell-based.
Test [19] has as its system MGC-803. The experiment in a line: Induction of apoptosis in human MGC803 cells assessed as decrease in XIAP level after 48 hrs by Western blot analysis. Format: functional, cell-based.
Test [20] deals with MGC-803. The experiment in a line: Cell cycle arrest in human MGC803 cells assessed as accumulation at G1 phase at 200 nM after 48 hrs by propidium iodide staining based flow cytometry (reference value: 62.61%). Format: functional.
For test [21], the system named is MGC-803. The experiment in a line: Cell cycle arrest in human MGC803 cells assessed as accumulation at S phase at 200 nM after 48 hrs by propidium iodide staining based flow cytometry (reference value: 24.8%). Format: functional.
The test system of test [22] is MGC-803. The experiment in a line: Cell cycle arrest in human MGC803 cells assessed as accumulation at G2 phase at 200 nM after 48 hrs by propidium iodide staining based flow cytometry (reference value: 8.76%). Format: functional.
Test [23] has as its system MGC-803. The experiment in a line: Cell cycle arrest in human MGC803 cells assessed as accumulation at G1 phase at 400 nM after 48 hrs by propidium iodide staining based flow cytometry (reference value: 62.61%). Format: functional.
Test [24] concerns MGC-803. The experiment in a line: Cell cycle arrest in human MGC803 cells assessed as accumulation at S phase at 400 nM after 48 hrs by propidium iodide staining based flow cytometry (reference value: 24.8%). Format: functional.
Test [25] has as its system MGC-803. The experiment in a line: Cell cycle arrest in human MGC803 cells assessed as accumulation at G2 phase at 400 nM after 48 hrs by propidium iodide staining based flow cytometry (reference value: 8.76%). Format: functional.
In test [26] the test system is MGC-803. The experiment in a line: Cell cycle arrest in human MGC803 cells assessed as down regulation of cyclin B1 expression after 48 hrs by Western blot analysis. Format: functional, cell-based.
In test [27] the test system is MGC-803. The experiment in a line: Cell cycle arrest in human MGC803 cells assessed as down regulation of CDK1 expression after 48 hrs by Western blot analysis. Format: functional, cell-based.
For test [28], the system named is MGC-803. The experiment in a line: Disruption of mitochondrial membrane potential in human MGC803 cells after 48 hrs by JC1 staining based flow cytometry. Format: functional, cell-based.
Test [29] deals with MGC-803. The experiment in a line: Disruption of mitochondrial membrane potential in human MGC803 cells assessed as intact mitochondrial membrane at 200 nM after 48 hrs by JC1 staining based flow cytometry (reference value: 3.9%). Format: functional.
Test [30] concerns MGC-803. The experiment in a line: Disruption of mitochondrial membrane potential in human MGC803 cells assessed as collapse of the mitochondrial membrane potential at 200 nM after 48 hrs by JC1 staining based flow cytometry (reference value: 96.1%). Format: functional.
Test [31] has as its system MGC-803. The experiment in a line: Disruption of mitochondrial membrane potential in human MGC803 cells assessed as intact mitochondrial membrane at 400 nM after 48 hrs by JC1 staining based flow cytometry (reference value: 3.9%). Format: functional.
Test [32] has as its system MGC-803. The experiment in a line: Disruption of mitochondrial membrane potential in human MGC803 cells assessed as collapse of the mitochondrial membrane potential at 400 nM after 48 hrs by JC1 staining based flow cytometry (reference value: 96.1%). Format: functional.
Test [33] has as its system MGC-803. The experiment in a line: Disruption of mitochondrial membrane potential in human MGC803 cells assessed as intact mitochondrial membrane at 600 nM after 48 hrs by JC1 staining based flow cytometry (reference value: 3.9%). Format: functional.
Test [34] has as its system MGC-803. The experiment in a line: Disruption of mitochondrial membrane potential in human MGC803 cells assessed as collapse of the mitochondrial membrane potential at 600 nM after 48 hrs by JC1 staining based flow cytometry (reference value: 96.1%). Format: functional.
The target in test [35] is Tubulin (Homo sapiens) (UniProt P68371+Q9H4B7+P0DPH7+P68366+Q13509+Q71U36+P04350+Q3ZCM7+P07437+P68363+Q9BQE3+Q6PEY2+Q13885+Q9BVA1+Q9BUF5). The experiment in a line: Inhibition of tubulin polymerization in human MGC803 cells assessed as depolymerization of interphase microtubules at 600 nM after 4 to 8 hrs by DAPI staining based microscopic analysis. Format: cell-based.

Test [36] concerns the target Tubulin. The experiment in a line: Inhibition of tubulin polymerization (unknown origin) measured every 5 mins by fluorescence assay. Format: protein-complex assay, Homo sapiens.
For test [37], the species on record is Homo sapiens. The experiment in a line: Inhibition of EBI binding to beta-tubulin colchicine binding site in human MGC803 cells at […] preincubated for 2 hrs followed by EBI addition and measured after 2 hrs by Western blot analysis. Format: cell-based.
For test [38], the species on record is Homo sapiens. The experiment in a line: Inhibition of EBI binding to beta-tubulin colchicine binding site in human MGC803 cells at 5 uM preincubated for 2 hrs followed by EBI addition and measured after 2 hrs by Western blot analysis. Format: cell-based.

On to `COc1ccc(CN(C(=O)CCCSc2nc3ccccc3o2)c2cc(OC)c(OC)c(OC)c2)cc1`, for which the IC50 in [1] is 1.29 µM; in test [2] it was 32.7 µM; in test [3] it was 11 µM.

For `COc1ccc(CN(C(=O)CCSc2nc3ccccc3o2)c2cc(OC)c(OC)c(OC)c2)cc1`, the half-maximal inhibitory concentration (IC50) in test [1] worked out at 0.64 µM; in test [2] it was 20.2 µM; in [3], 12.6 µM.

Consider `COc1ccc(CN(C(=O)CSc2nncs2)c2cc(OC)c(OC)c(OC)c2)cc1`, for which the half-maximal inhibitory concentration (IC50) in test [1] amounted to 1.15 µM; in test [2], 5.53 µM; in test [3], 9.84 µM.

As to `Cc1ccc(S(=O)(=O)NCc2cn(Cc3cccc(Oc4ccccc4)c3)nn2)cc1`, the IC50 in test [4] came out at 2.41 µM.

With `COc1ccc(CN(C(=O)CSc2nc3ccccc3[nH]2)c2cc(OC)c(OC)c(OC)c2)cc1`, the 50% inhibitory concentration (IC50) was found to be 1.23 µM in test [1], 14.3 µM in [2] and 42.6 µM in [3].

As for `COc1ccc(CN(C(=O)CSc2nnnn2C)c2cc(OC)c(OC)c(OC)c2)cc1`, the IC50 in [1] turned out to be 2.49 µM; in test [2] it was 10.5 µM; in test [3], 5.54 µM.

With `COc1ccc(CN(C(=O)CSc2nc3ccccc3o2)c2cc(OC)c(OC)c(OC)c2)cc1`, the concentration for half-maximal inhibition (IC50) worked out at 0.45 µM in test [1], 3.53 µM in test [2], 24.8 µM in test [3] and 3.35 µM in test [36]. For the same compound, the Activity is 95.9% in [5]; 2.8% in [6]; 1.1% in [7]; 0.1% in test [8]; 89.7% in [9]; 4.1% in [10]. Moreover, the Activity is on record as 4.3% in test [11]; 1.9% in test [12]; 61.7% in test [13]; 4.9% in test [14]; 30.3% in test [15]; 3.1% in [16]. The Activity entry in [17] is “Dose-dependent effect”; in [18], “Dose-dependent effect”; in test [19], “Dose-dependent effect”; in [20], 61.68%; in test [21], 23.29%; in test [22], 12.13%. The Activity in test [23] is 52.55%; in test [24] it was 22.46%; in test [25] it was 20.71%; in test [26], “Dose-dependent effect”; in test [27], “Dose-dependent effect”; in test [28], “Dose-dependent effect”. For the same compound, the Activity in [29] was determined as 96.1%; in test [30] it was 3.9%; in test [31], 60.1%; in test [32], 39.9%; in test [33], 47.2%; in test [34], 52.8%. Besides, the inhibition entry in [35] and in test [37] was “Active” each time.

As to `COc1ccc(CN(C(=O)CSc2ccccn2)c2cc(OC)c(OC)c(OC)c2)cc1`, the 50% inhibitory concentration (IC50) in test [1] came out at 2.41 µM; in test [2], 7.51 µM; in test [3] it was 16 µM.

For the compound `COc1cc2c(c(OC)c1OC)-c1ccc(OC)c(=O)cc1[C@@H](NC(C)=O)CC2` [COLCHICINE], the results for the IC50 in test [1], in test [2] and in [3] were 0.177 µM, 0.13 µM and 1.24 µM, respectively. Further, the inhibition entry in test [38] was “Active”.

On to `COc1ccc(CN(C(=O)CSc2nc3ccc(OC)cc3s2)c2cc(OC)c(OC)c(OC)c2)cc1`, for which the figures for the IC50 in test [1], in test [2] and in test [3] were 1.27 µM, 20.2 µM and greater than 80 µM, respectively.

Consider `COc1ccc(CN(C(=O)CCCCSc2nc3ccccc3o2)c2cc(OC)c(OC)c(OC)c2)cc1`, for which the figures for the IC50 in test [1], in test [2] and in [3] were 1.36 µM, 45.6 µM and 7.65 µM, respectively.
